# In article PMC10077475, “DG9-conjugated morpholino rescues phenotype in SMA mice by reaching the CNS via a subcutaneous administration” (JCI Insight, 2023):
# Tested on: severe SMA mouse model (Taiwanese model)
# Assay: Survival of severe SMA mice after a single subcutaneous injection at PD0
# Type: in vivo
# Conditions: single subcutaneous injection at PD0, 40 mg/kg, until humane endpoint
# Protocol: To examine whether DG9 peptide can increase the efficacy of PMO, we conjugated it to an 18-mer PMO with a sequence identical to nusinersen. The DG9-PMO, unconjugated PMO, and MOE were injected into SMA model mice [Cg-Tg(SMN2)2HungSmn1^tm1Hung/J; abbreviated as Smn^–/– SMN2^Tg/Tg; commonly called the Taiwanese model]. We also used an arginine-rich peptide (R6G) that is currently being explored in clinical trials for Duchenne muscular dystrophy (DMD) and used in preclinical studies for Hutchinson-Gilford progeria syndrome ([37], [38]). The benchmark control peptide R6G was conjugated to the same PMO sequence used in our study (R6G-PMO). […] We subcutaneously injected mice with the AOs or saline (nontreated, NT) administered at postnatal day 0 (PD0) at 2 doses: 40 mg/kg or 80 mg/kg. In our preliminary experiments, we also tested lower doses of 10 and 20 mg/kg (data not shown). […] The survival was recorded until a humane endpoint was reached. For the 40 mg/kg doses, the median survival was 12 days for unconjugated PMO, 15.5 days for MOE, and 17 days for R6G-PMO, which was increased to 58 days for DG9-PMO treatment (Figure 1A and Supplemental Figure 1A; supplemental material available online with this article; https://doi.org/10.1172/jci.insight.160516DS1). The median survival increased to 57 days for unconjugated PMO, 64 days for MOE, and 121 days for DG9-PMO at the higher dose of 80 mg/kg (Figure 1A). […] In spite of no statistical difference between DG9-PMO and MOE groups, the median survival of DG9-PMO still was higher than MOE, as only 1 mouse was alive until PD200 following a 40 mg/kg injection of MOE.
# SMA-transgenic mice [JAX stock 005058 FVB.Cg-Tg(SMN2)2HungSmn1^tm1Hung/J] (Smn^–/–; SMN2^Tg/Tg), also known as Taiwanese mice, were purchased from Jackson Laboratory. Heterozygous mice for Smn1 (Smn1^+/–; SMN2^–/–) generated by us were crossed with mice homozygous for Smn1 Smn^–/–; SMN2^Tg/Tg generated by us to obtain the SMA mice (Smn^–/–; SMN2^Tg/–) or the heterozygous healthy control (Smn1^+/–; SMN2^Tg/–). The SMA mice display a severe overt phenotype similar to patients with SMA type I. The mice were genotyped using a PCR assay on genomic DNA isolated from tail biopsies using the Phire Tissue Direct PCR Kit (Thermo Fisher Scientific) as per the manufacturer’s instructions. The DNA was amplified using the primers described in Supplemental Table 1 using the condition Mouse Smn: 98°C/5 minutes → 98°C/5 s 58°C/10 s 72°C/10 s × 35 cycles → 72°C/1 minute.
# Injections were carried out using a 30-gauge Hamilton syringe. SMA mice identified following genotyping were randomly assigned to a treatment group. The researcher injecting mice was blinded to the treatment. SMA neonates were subcutaneously injected with 40 or 80 mg/kg of AOs at PD0, while NT and heterozygous control mice were injected with saline (n = 10–49) per group. Tissues including the quadriceps muscle, liver, kidney, spleen, diaphragm, intercostal muscle, heart, brain, and spinal cord were collected and snap-frozen in dry ice– cooled isopentane, then subsequently stored at –80°C.
substance,measurement,value
RRRRRRG [R6G-PMO],median survival,17 days
